Results published in ChEMBL document CHEMBL1153101, “Hit to lead studies on (hetero)arylpyrimidines--agonists of the canonical Wnt-beta-catenin cellular messaging system” (Bioorg Med Chem Lett, 2010).
Values after ≈ are worked out from the molar mass of the structure shown. Active and inactive are the calls of the source. No cut-off for these calls is given here.

Columns and labels:
[1] = Activation of Wnt-3a/Dkk-1 expressed in human U2OS cells by TCF-luciferase assay; assay type: cell-based
U2OS = experiment: Activation of Wnt-3a/Dkk-1 expressed in human U2OS cells at 20 uM by TCF-luciferase assay relative to control; assay type: cell-based
Mus musculus [2] = experiment: Osteogenic activity in wild type C57BL/6 mouse calvaria in vivo assessed as increase in mineral apposition rate at 0.03 mg/kg/day by histomorphometry measurement
[3] = Aqueous solubility of the compound; assay type: physicochemical
Mus musculus [4] = experiment: Osteogenic activity in wild type C57BL/6 mouse calvaria in vivo assessed as increase in mineral apposition rate at 0.1 mg/kg/day by histomorphometry measurement
[5] = Permeability by PAMPA; assay type: ADME; settings: read-out: permeability
[6] = Metabolic stability in rat liver microsomes; assay type: ADME, Microsome
Mus musculus [7] = experiment: Osteogenic activity in wild type C57BL/6 mouse calvaria in vivo assessed as non phosphorylated beta-catenin at 0.3 mg/kg/day by immunohistochemistry
Mus musculus [8] = experiment: Osteogenic activity in wild type C57BL/6 mouse calvaria in vivo assessed as non phosphorylated beta-catenin at 1 mg/kg/day by immunohistochemistry
[9] = Inhibition of Wnt-3a/Dkk-1-mediated [32P]GSk3beta phosphorylation in human U2OS cells at 20 uM by TCF-luciferase assay relative to control; assay type: cell-based

Row | Compound | EC50 [1] [µM] | fold change (FC) (U2OS) | also measured
1 | O=[N+]([O-])c1cccc(-c2ccnc(NCCCn3ccnc3)n2)c1 | 46.3 | 3.6 | 
2 | C#CCOC[C@H](Cc1c[nH]cn1)Nc1nccc(-c2cc3ccccc3s2)n1 |  | 3.5 | 
3 | c1ccc2sc(-c3ccnc(NCCc4c[nH]cn4)n3)cc2c1 | 3.3 | 3.7 | 
4 | CCOC[C@H](Cc1c[nH]cn1)Nc1nccc(-c2ccc3ccccc3c2)n1 | 14.4 | 1.9 | 
5 | c1cncc(-c2ccnc(NCCc3c[nH]c4ccccc34)n2)c1 | 4.1 | 10 | 
6 | c1ccc2cc(-c3ccnc(NCCc4c[nH]cn4)n3)ccc2c1 | 12.1 | 1.1 | 
7 | C=C1CCCCC1OC[C@H](Cc1c[nH]cn1)Nc1nccc(-c2ccc3ccccc3c2)n1 (stereo partly drawn) | 20.8 | 2.2 | 
8 | c1cc(CCNc2nccc(-c3ccncc3)n2)ccn1 | 6.8 | 4.3 | 
9 | N#CCCn1cnc(C[C@@H](CO)Nc2nccc(-c3cc4ccccc4s3)n2)c1 |  | 4.1 | 
10 | c1cncc(CCNc2nccc(-c3ccncc3)n2)c1 | 4.6 | 2.8 | 
11 | c1ccc2c(CCNc3nccc(-c4ccncc4)n3)c[nH]c2c1 | 2.7 | 7.5 | 
12 | Fc1c(COC[C@H](Cc2c[nH]cn2)Nc2nccc(-c3ccc4ccccc4c3)n2)cccc1C(F)(F)F | 10.9 | 1.6 | 
13 | c1cncc(-c2ccnc(NCCCn3ccnc3)n2)c1 | 8.8 | 4.7 | 
14 | OC[C@H](Cc1c[nH]cn1)Nc1nccc(-c2ccc3ccccc3c2)n1 | 6.8 | 4.9 | Activity (Mus musculus [2]): Active; solubility [3]: 65 µg/mL (≈ 188 µM); Activity (Mus musculus [4]): Active; Papp [5]: 0.13 ×10⁻⁶ cm/s; half-life [6]: ≥ 1.33 h
15 | c1cncc(-c2ccnc(NCCc3c[nH]cn3)n2)c1 | 28.8 | 3.1 | 
16 | N#CCCn1cnc(C[C@@H](CO)Nc2nccc(-c3ccc4ccccc4c3)n2)c1 |  | 5.5 | 
17 | NC(=O)Cn1cnc(C[C@@H](CO)Nc2nccc(-c3ccc4ccccc4c3)n2)c1 |  | 3.9 | 
18 | c1cncc(-c2ccnc(NCCc3ccncc3)n2)c1 | 20.2 | 3.4 | 
19 | Cc1[nH]c2ccc(O)cc2c1CCNc1nccc(-c2cccnc2)n1 | 12.2 | 5.1 | 
20 | c1cc(-c2ccnc(NCCCn3ccnc3)n2)ccn1 | 4.2 | 2.9 | Activity (Mus musculus [7]): Active; Activity (Mus musculus [2]): Active; Activity (Mus musculus [4]): Active; Activity (Mus musculus [8]): Active; IC50 [9]: 51 µM
21 | C#CCn1cnc(C[C@@H](CO)Nc2nccc(-c3cc4ccccc4s3)n2)c1 | 14.6 | 3 | 
22 | OC[C@H](Cc1cn(Cc2cc(F)cc(F)c2)cn1)Nc1nccc(-c2cc3ccccc3s2)n1 | 16 | 1.7 | 
23 | OC[C@H](Cc1cn(Cc2cc(F)cc(F)c2)cn1)Nc1nccc(-c2ccc3ccccc3c2)n1 |  | 2 | 
24 | Cc1cc(C)n(CCCNc2nccc(-c3ccncc3)n2)n1 | 29.6 | 2.1 | 
